Measurements: patent US20200323991A1, “PBD CONJUGATES FOR TREATING DISEASES” (ENDOCYTE, INC., priority 2016, published 2020)
Like-named read-outs stand apart in the source and are kept apart here.

Assays:
KB cells = format: cell-based, human; conditions: read-out: IC50 value, 3H-thymidine incorporation
Protocol: The conjugates described herein were evaluated using an in vitro cytotoxicity assay that predicted the ability of the drug to inhibit the growth of the corresponding targeted cells, such as, but not limited to the following
It is to be understood that the choice of cell type can be made on the basis of the susceptibility of those selected cells to the drug that forms the conjugate, and the relative expression of the cell surface receptor or target antigen. The test conjugates were conjugates of a cell surface receptor or target antigen binding compound and PBD prodrugs, poly-PBD prodrugs, and mixed PBDs, as described herein. The test cells were exposed to varying concentrations of the conjugates, and optionally also in the absence or presence of at least a 100-fold excess of the unconjugated cell surface receptor or target antigen binding compound for competition studies to assess activity as being specific to the cell surface receptor or target antigen.
KB cells were seeded in individual 24-well Falcon plates and allowed to form nearly confluent monolayers overnight in folate free Roswell Park Memorial Institute (FFRPMI)/Heat-Inactivated Fetal Calf Serum (HIFCS). Thirty minutes prior to the addition of folate-conjugate, spent medium was aspirated from all wells and replaced with either fresh FFRPMI or FFRPMI supplemented with 100 μM folic acid. […] Cells were pulsed for 2 h at 37° C., rinsed 4 times with 0.5 mL of medium and then chased in 1 mL of fresh medium up to 72 h. Spent medium was aspirated from all wells and replaced with fresh medium containing 5 μCi/mL of ^3H-thymidine. Following a 2 h incubation at 37° C., cells were washed 3 times with 0.5 mL of PBS and then treated with 0.5 mL of ice-cold 5% trichloroacetic acid per well. After 15 min, the trichloroacetic acid was aspirated and the cells solubilized by the addition of 0.5 mL of 0.25 N sodium hydroxide for 15 min at room temperature. Four hundred and fifty […] of each solubilized sample were transferred to scintillation vials containing 3 mL of Ecolume scintillation cocktail and counted in a liquid scintillation counter. Final results were expressed as the percentage of ^3H-thymidine incorporation relative to untreated controls.

KB tumor = assay: Antitumor activity in large KB tumor model; format: in vivo, mice; conditions: for KB tumor size compared to untreated control: 0.5 μmol/kg SIW for two weeks
Protocol: Female Balb/c nu/nu mice were fed ad libitum with folate-deficient chow (Harlan diet #TD01013) for the duration of the experiment. KB tumor cells were inoculated subcutaneously at the right flank of each mouse. Mice were dosed after the tumors reached an average of 100 and 180 mm^3 through the lateral tail vein under sterile conditions in a volume of […] of phosphate-buffered saline (PBS).
Growth of each s.c. tumor was followed by measuring the tumor two times per week. Tumors were measured in two perpendicular directions using Vernier calipers, and their volumes were calculated as 0.5×L×W^2, where L=measurement of longest axis in mm and W=measurement of axis perpendicular to L in mm.

[1] = with excess folate (100 μM folic acid)
[2] = without excess folate, 2 h pulse, chase up to 72 h
[3] = 0.5 μmol/kg, once a week for two weeks

Row | Compound | IC50 (KB cells; [1]) [nM] | IC50 (KB cells; [2]) [nM] | cures (KB tumor; [3]) [%] | complete responses (KB tumor; [3]) [%] | KB tumor size compared to untreated control (KB tumor) | PRs (partial responses) (KB tumor; 1 μmol/kg, once a week for two weeks) [%] | cures (KB tumor; 0.2 μmol/kg, once a week for two weeks) [%]
1 | C=C1C[C@H]2C=Nc3cc(OCCCCCOc4cc(N)c(C(=O)N5CC(=C)C[C@H]5C5OCCN5C(=O)OCC(C)(C)SSCCC(=O)NCCNC(=O)CCCCCN5C(=O)CC(SC[C@H](NC(=O)[C@H](CC(=O)O)NC(=O)[C@H](CC(=O)O)NC(=O)[C@H](CCCNC(=N)N)NC(=O)[C@H](CC(=O)O)NC(=O)CC[C@H](NC(=O)c6ccc(NCc7cnc8nc(N)[nH]c(=O)c8n7)cc6)C(=O)O)C(=O)O)C5=O)cc4OC)c(OC)cc3C(=O)N2C1 (stereo partly drawn) [Conjugate 22] | 1.4 | 0.14 |  |  |  |  | 
2 | C=C1C[C@H]2C=Nc3cc(OCCCCCOc4cc(N)c(C(=O)N5CC(=C)C[C@H]5C5OCCN5C(=O)OCC(C)SSC[C@H](NC(=O)[C@H](CC(=O)O)NC(=O)[C@H](CC(=O)O)NC(=O)[C@H](CCCNC(=N)N)NC(=O)[C@H](CC(=O)O)NC(=O)CC[C@H](NC(=O)c5ccc(NCc6cnc7nc(N)[nH]c(=O)c7n6)cc5)C(=O)O)C(=O)O)cc4OC)c(OC)cc3C(=O)N2C1 (stereo partly drawn) [Conjugate 4] | 6 | 0.049 | 100 |  |  |  | 
3 | C=C1C[C@H]2C=Nc3cc(OCCCCCOc4cc(NC(=O)OCCSSC[C@@H](C)NC(=O)CCOCCOCCOCCOCCNC(=O)[C@H](CC(=O)O)NC(=O)[C@H](CC(=O)O)NC(=O)[C@H](CCCNC(=N)N)NC(=O)[C@H](CC(=O)O)NC(=O)CC[C@H](NC(=O)c5ccc(NCc6cnc7nc(N)[nH]c(=O)c7n6)cc5)C(=O)O)c(C(=O)N5CC(=C)C[C@H]5/C=N/OC)cc4OC)c(OC)cc3C(=O)N2C1 [Conjugate 26] | 1.6 | 0.028 |  |  |  |  | 
4 | C=C1C[C@H]2C=Nc3cc(OCCCCCOc4cc(NC(=O)OCCSSC(C)(C)[C@H](NC(=O)[C@H](CC(=O)O)NC(=O)[C@H](CC(=O)O)NC(=O)[C@H](CCCNC(=N)N)NC(=O)[C@H](CC(=O)O)NC(=O)CC[C@H](NC(=O)c5ccc(NCc6cnc7nc(N)[nH]c(=O)c7n6)cc5)C(=O)O)C(=O)O)c(C(=O)N5CC(=C)C[C@H]5/C=N/OC)cc4OC)c(OC)cc3C(=O)N2C1 [Conjugate 32] | 57 | 2 |  |  |  |  | 
5 | C=C1C[C@H]2C=Nc3cc(OCCCCCOc4cc(N)c(C(=O)N5CC(=C)C[C@H]5C5OCCN5C(=O)OCC(C)(C)SSCCC(=O)NCCNC(=O)CCOCCOCCOCCOCCOCCOCCOCCOCCOCCOCCOCCOCCOCCOCCOCCOCCOCCOCCOCCOCCOCCOCCOCCOCCOCCOCCOCCOCCOCCOCCOCCOCCOCCOCCOCCOCCNC(=O)CCN5C(=O)CC(SC[C@H](NC(=O)[C@H](CC(=O)O)NC(=O)[C@H](CC(=O)O)NC(=O)[C@H](CCCNC(=N)N)NC(=O)[C@H](CC(=O)O)NC(=O)CC[C@H](NC(=O)c6ccc(NCc7cnc8nc(N)[nH]c(=O)c8n7)cc6)C(=O)O)C(=O)O)C5=O)cc4OC)c(OC)cc3C(=O)N2C1 (stereo partly drawn) [Conjugate 7] | 5 | 0.13 | 100 |  |  |  | 
6 | C=C1C[C@H]2C=Nc3cc(OCCCCCOc4cc5c(cc4OC)C(=O)N4CC(=C)C[C@H]4C(O)N5C(=O)OCC(C)(C)SSCCC(=O)NCCNC(=O)CCOCCOCCOCCOCCNC(=O)CCN4C(=O)CC(SC[C@H](NC(=O)[C@H](CC(=O)O)NC(=O)[C@H](CC(=O)O)NC(=O)[C@H](CCCNC(=N)N)NC(=O)[C@H](CC(=O)O)NC(=O)CC[C@H](NC(=O)c5ccc(NCc6cnc7nc(N)[nH]c(=O)c7n6)cc5)C(=O)O)C(=O)O)C4=O)c(OC)cc3C(=O)N2C1 (stereo partly drawn) [Conjugate 24] | 1.8 | 0.079 |  |  |  |  | 
7 | C=C1C[C@H]2C=Nc3cc(OCCCCCOc4cc(NC(=O)OCCSSC[C@H](NC(=O)[C@H](CC(=O)O)NC(=O)[C@H](CC(=O)O)NC(=O)[C@H](CCCNC(=N)N)NC(=O)[C@H](CC(=O)O)NC(=O)CC[C@H](NC(=O)c5ccc(NCc6cnc7nc(N)[nH]c(=O)c7n6)cc5)C(=O)O)C(=O)O)c(C(=O)N5CC(=C)C[C@H]5/C=N/OC)cc4OC)c(OC)cc3C(=O)N2C1 [Conjugate 16] | 5 | 0.07 | 60 | 40 |  |  | 
8 | C=C1CC(/C=N/OC)N(C(=O)c2cc(OC)c(OCCCCCOc3cc4c(cc3OC)C(=O)N3CC(=C)C[C@H]3C=N4)cc2NC(=O)OCC(C)(C)SSCCC(=O)NCCNC(=O)CCN2C(=O)CC(SC[C@H](NC(=O)[C@H](CC(=O)O)NC(=O)[C@H](CC(=O)O)NC(=O)[C@H](CCCNC(=N)N)NC(=O)[C@H](CC(=O)O)NC(=O)CC[C@H](NC(=O)c3ccc(NCc4cnc5nc(N)[nH]c(=O)c5n4)cc3)C(=O)O)C(=O)O)C2=O)C1 (stereo partly drawn) [Conjugate 18] | 2 | 0.065 |  |  | decreased KB tumor size |  | 
9 | C=C1C[C@H]2C=Nc3cc(OCCCCCOc4cc(NC(=O)OCCCSSC[C@H](NC(=O)[C@H](CC(=O)O)NC(=O)[C@H](CC(=O)O)NC(=O)[C@H](CCCNC(=N)N)NC(=O)[C@H](CC(=O)O)NC(=O)CC[C@H](NC(=O)c5ccc(NCc6cnc7nc(N)[nH]c(=O)c7n6)cc5)C(=O)O)C(=O)O)c(C(=O)N5CC(=C)C[C@H]5/C=N/OC)cc4OC)c(OC)cc3C(=O)N2C1 [Conjugate 31] |  | 0.647 |  |  |  |  | 
10 | C=C1C[C@H]2C=Nc3cc(OCCCCCOc4cc5c(cc4OC)C(=O)N4CC(=C)C[C@H]4C(=O)N5COC(=O)CCCSSC[C@@H](NC(=O)[C@H](CCC(=O)NC[C@H](O)[C@@H](O)[C@H](O)[C@H](O)CO)NC(=O)[C@@H](CCC(=O)O)NC(=O)[C@H](CCC(=O)NC[C@H](O)[C@@H](O)[C@H](O)[C@H](O)CO)NC(=O)[C@@H](CCC(=O)O)NC(=O)[C@H](CCC(=O)NC[C@H](O)[C@@H](O)[C@H](O)[C@H](O)CO)NC(=O)CC[C@H](NC(=O)c4ccc(NCc5cnc6nc(N)[nH]c(=O)c6n5)cc4)C(=O)O)C(=O)O)c(OC)cc3C(=O)N2C1 [Conjugate 9] | 67 | 0.8 |  |  |  | 0 | 
11 | C=C1C[C@H]2C=Nc3cc(OCCCCCOc4cc(N)c(C(=O)N5CC(=C)C[C@H]5C5OCCN5C(=O)OCC(C)(C)SSCCC(=O)NCCNC(=O)CCOCCOCCOCCOCCOCCOCCOCCOCCOCCOCCOCCOCCNC(=O)CCN5C(=O)CC(SC[C@H](NC(=O)[C@H](CC(=O)O)NC(=O)[C@H](CC(=O)O)NC(=O)[C@H](CCCNC(=N)N)NC(=O)[C@H](CC(=O)O)NC(=O)CC[C@H](NC(=O)c6ccc(NCc7cnc8nc(N)[nH]c(=O)c8n7)cc6)C(=O)O)C(=O)O)C5=O)cc4OC)c(OC)cc3C(=O)N2C1 (stereo partly drawn) [Conjugate 8] | 0.3 | 0.055 |  |  |  |  | 100
12 | C=C1C[C@H]2[C@H](O)N(C(=O)OCC(C)SSC[C@H](CC(=O)[C@H](CC(=O)O)NC(=O)[C@H](CC(=O)O)NC(=O)[C@H](CCCNC(=N)N)NC(=O)[C@H](CC(=O)O)NC(=O)CC[C@H](NC(=O)c3ccc(NCc4cnc5nc(N)[nH]c(=O)c5n4)cc3)C(=O)O)C(=O)O)c3cc(OCCCCCOc4cc5c(cc4OC)C(=O)N4CC(=C)C[C@H]4[C@H](O)N5C(=O)OCC(C)SSC[C@H](NC(=O)[C@H](CC(=O)O)NC(=O)[C@H](CC(=O)O)NC(=O)[C@H](CCCNC(=N)N)NC(=O)[C@H](CC(=O)O)NC(=O)CC[C@H](NC(=O)c4ccc(NCc5cnc6nc(N)[nH]c(=O)c6n5)cc4)C(=O)O)C(=O)O)c(OC)cc3C(=O)N2C1 (stereo partly drawn) [Conjugate 2] | 16 | 0.14 | 100 |  |  |  | 
13 | C=C1C[C@H]2C=Nc3cc(OCCCCCOc4cc(NC(=O)OCC(C)(C)SSCCC(=O)NCCNC(=O)CCOCCOCCOCCOCCOCCOCCOCCOCCOCCOCCOCCOCCNC(=O)CCN5C(=O)CC(SC[C@H](NC(=O)[C@H](CC(=O)O)NC(=O)[C@H](CC(=O)O)NC(=O)[C@H](CCCNC(=N)N)NC(=O)[C@H](CC(=O)O)NC(=O)CC[C@H](NC(=O)c6ccc(NCc7cnc8nc(N)[nH]c(=O)c8n7)cc6)C(=O)O)C(=O)O)C5=O)c(C(=O)N5CC(=C)C[C@H]5/C=N/OC)cc4OC)c(OC)cc3C(=O)N2C1 (stereo partly drawn) [Conjugate 20] | 0.7 | 0.04 |  |  | decreased KB tumor size |  | 
14 | C=C1C[C@H]2C=Nc3cc(OCCCCCOc4cc(NC(=O)OCC(C)SSC[C@H](NC(=O)CCOCCOCCOCCOCCNC(=O)[C@H](CC(=O)O)NC(=O)[C@H](CC(=O)O)NC(=O)[C@H](CCCNC(=N)N)NC(=O)[C@H](CC(=O)O)NC(=O)CC[C@H](NC(=O)c5ccc(NCc6cnc7nc(N)[nH]c(=O)c7n6)cc5)C(=O)O)C(=O)O)c(C(=O)N5CC(=C)C[C@H]5/C=N/OC)cc4OC)c(OC)cc3C(=O)N2C1 (stereo partly drawn) [Conjugate 27] | 6.1 | 0.091 |  |  |  |  | 
